Assay results published in patent publication US20200109429A1, “Methods and Systems for Cell-Free Biodiscovery of Natural Products” (Synvitrobio, Inc., priority 2017, published 2020).
Values after ≈ are worked out from the molar mass of the structure shown. Read-outs that look alike come from different tables or passages of the source. Where a SMILES comes first, the peptide text is derived from it. Bridges are numbered along the chain shown (N, C = ends).

Legend:
[1] = molecular target: T1, E. coli RNA polymerase (Escherichia coli, UniProt P0A8T7+P0A8V2); type: biochemical; design: endogenous in cells; host or cells: E. coli cell-free lysate (extract eZS6 or eAC15, prepared per Sun et al. 2013); settings: lasso cluster co-expressed with sigma70 GFP reporter in E. coli cell-free system
Procedure: All reactions contain 40019 in plasmid form at 2.66 nM, and the reaction is done in E. coli extract “eZS6” at 25% lysate, 75% buffer concentration, prepared as listed in (Sun et al., 2013) or “eAC15” at 30% lysate, 70% buffer concentration. GFP concentration was kept at 2 nM, and the other components kept at a total of 6 nM to control for competition affects.
These are run in a E. coli-based cell-free lysate system in different concentrations, as listed by nM concentrations described in the chart, with all reactions containing 4 nM sigma70-UTR1-GFP and 3.5 μM gamS to protect linear templates.
Our expression system incorporates these coding sequences individually with a sigma70 promoter, UTR and terminator. […] A GFP construct (40019 in linear) was assembled in the same way. Linear DNAs were generated either by PCR amplification from plasmid or the DNA assemblies themselves. We used 3.5 μM GamS to prevent template degradation in E. coli lysate. Reactions were run at 10 μl scale in a 384-well format. The reaction is done in E. coli extract “eZS6” at 25% lysate, 75% buffer concentration, prepared as listed in (Sun et al., 2013). Timecourses of GFP intensity were taken, and 12 hr endpoints were used to generate the heatmap. GFP intensity of lasso-cluster-containing reaction was normalized to their paired negative controls.
We expressed our GFP construct in the same reactions as our lasso constructs. GFP (4009 in linear) was expressed at 4 nM and the lasso cluster genes at 0.6 nM.

[2] = tested on: Salmonella; settings: mouse models; cited from earlier work
[3] = tested on: E. coli; settings: cited from earlier work
[4] = tested on: E. coli; type: cell-based; settings: purified microcin J25 added to cellular reactions, E. coli cell death
Procedure: (A) Cell-free assay of mccj25 activity. […] (B) Inhibition of E. coli in vivo growth by purified microcin J25. Data, final concentrations.
It is seen in FIG. 7B that adding purified microcin J25 to cellular reactions causes cell death with a MIC of 0.1 uM. If microcin J25 produced in cell-free systems is at high enough concentration, those skilled in the art will recognize that the MIC curve for killing live E. coli will be the similar. However, avoiding phage in the reaction is essential to ensure that the MIC is accurate and not caused by propogation of infecting phage carried over in a typical cell-free reaction that is contaminated with phage.

[5] = type: in vitro ADME, E. coli
Procedure: Linear constructs were expressed in 10 μl cell free reactions with 2% flurotect (a tRNA carrying a BODIPY labelled lysine) and 8 nM DNA constructs for MBP-A or MBP (1065, 1066). 2 μl of these reactions were prepared in 20 μl sample buffer (50 mM bis-Tris, 2% SDS, 10% glycerol) and run on a 4-12% bis-tris PAGE gel (ThermoFisher Scientific) at 200V for 20 min.
To stabilize mcjA, the peptide can be tagged either on the N terminus or the C terminus as a fusion protein that provides a stable domain that prevents proteolysis of mcjA. A linker and/or targeting region can be added to remove the tag. In an example, we tag mcjA with a maltose binding protein (MBP), generating a construct 1065 (SEQ ID NO.: 19) and compare the expression of 1065 to a wildtype MBP, 1066 (SEQ ID NO.: 20). In a SDS-PAGE gel expressing both constructs in FIG. 18, the expressed fusion protein was stable and easily visualized on a gel.

[6] = molecular target: T1, E. coli RNA polymerase; settings: has been shown previously; cited from earlier work
[7] = 121 C for 10 min heat step; cited from earlier work

T1 sequence (P0A7Z4 whole entry): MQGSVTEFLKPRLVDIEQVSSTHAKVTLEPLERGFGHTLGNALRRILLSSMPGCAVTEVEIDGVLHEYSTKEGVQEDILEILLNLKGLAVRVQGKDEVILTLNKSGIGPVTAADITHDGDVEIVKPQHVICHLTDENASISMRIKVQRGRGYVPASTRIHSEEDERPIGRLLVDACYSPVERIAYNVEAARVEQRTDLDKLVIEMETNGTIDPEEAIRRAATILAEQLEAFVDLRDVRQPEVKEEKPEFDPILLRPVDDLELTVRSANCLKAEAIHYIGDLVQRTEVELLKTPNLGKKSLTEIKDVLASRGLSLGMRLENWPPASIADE
T1 sequence (P0A8V2 whole entry): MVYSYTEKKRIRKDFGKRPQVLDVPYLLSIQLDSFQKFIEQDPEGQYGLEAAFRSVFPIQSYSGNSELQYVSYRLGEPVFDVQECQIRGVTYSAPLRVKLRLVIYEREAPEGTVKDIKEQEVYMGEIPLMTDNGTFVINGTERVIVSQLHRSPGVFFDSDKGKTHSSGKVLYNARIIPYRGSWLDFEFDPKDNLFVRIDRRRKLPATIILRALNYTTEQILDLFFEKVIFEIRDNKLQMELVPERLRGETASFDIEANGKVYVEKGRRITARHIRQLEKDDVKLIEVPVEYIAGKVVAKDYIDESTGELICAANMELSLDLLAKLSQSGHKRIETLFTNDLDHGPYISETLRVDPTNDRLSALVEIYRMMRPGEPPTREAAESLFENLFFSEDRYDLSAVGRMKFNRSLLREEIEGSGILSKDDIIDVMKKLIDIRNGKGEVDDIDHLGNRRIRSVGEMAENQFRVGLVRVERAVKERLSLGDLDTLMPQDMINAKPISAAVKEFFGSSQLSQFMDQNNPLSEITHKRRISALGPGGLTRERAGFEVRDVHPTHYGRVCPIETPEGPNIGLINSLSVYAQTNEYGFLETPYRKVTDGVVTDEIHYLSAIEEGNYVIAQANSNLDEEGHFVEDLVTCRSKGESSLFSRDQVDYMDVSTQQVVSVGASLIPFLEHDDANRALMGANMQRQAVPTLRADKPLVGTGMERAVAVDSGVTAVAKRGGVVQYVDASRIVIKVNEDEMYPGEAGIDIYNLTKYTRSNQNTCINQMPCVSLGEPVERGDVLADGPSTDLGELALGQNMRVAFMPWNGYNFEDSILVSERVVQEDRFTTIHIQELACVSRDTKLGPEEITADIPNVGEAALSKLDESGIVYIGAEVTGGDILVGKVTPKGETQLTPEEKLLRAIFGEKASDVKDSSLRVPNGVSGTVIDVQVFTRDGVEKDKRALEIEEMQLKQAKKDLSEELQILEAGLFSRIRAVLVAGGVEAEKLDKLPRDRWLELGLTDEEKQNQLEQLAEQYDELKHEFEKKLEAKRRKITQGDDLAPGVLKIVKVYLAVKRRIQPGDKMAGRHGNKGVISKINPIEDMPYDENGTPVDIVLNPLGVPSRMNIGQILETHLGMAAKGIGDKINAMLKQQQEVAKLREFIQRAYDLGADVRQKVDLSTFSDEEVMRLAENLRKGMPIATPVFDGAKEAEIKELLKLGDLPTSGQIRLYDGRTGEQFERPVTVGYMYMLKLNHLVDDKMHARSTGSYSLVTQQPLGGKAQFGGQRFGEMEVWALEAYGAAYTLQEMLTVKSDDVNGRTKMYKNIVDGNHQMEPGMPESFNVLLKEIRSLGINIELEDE
T1 sequence (P00579 whole entry, further chain): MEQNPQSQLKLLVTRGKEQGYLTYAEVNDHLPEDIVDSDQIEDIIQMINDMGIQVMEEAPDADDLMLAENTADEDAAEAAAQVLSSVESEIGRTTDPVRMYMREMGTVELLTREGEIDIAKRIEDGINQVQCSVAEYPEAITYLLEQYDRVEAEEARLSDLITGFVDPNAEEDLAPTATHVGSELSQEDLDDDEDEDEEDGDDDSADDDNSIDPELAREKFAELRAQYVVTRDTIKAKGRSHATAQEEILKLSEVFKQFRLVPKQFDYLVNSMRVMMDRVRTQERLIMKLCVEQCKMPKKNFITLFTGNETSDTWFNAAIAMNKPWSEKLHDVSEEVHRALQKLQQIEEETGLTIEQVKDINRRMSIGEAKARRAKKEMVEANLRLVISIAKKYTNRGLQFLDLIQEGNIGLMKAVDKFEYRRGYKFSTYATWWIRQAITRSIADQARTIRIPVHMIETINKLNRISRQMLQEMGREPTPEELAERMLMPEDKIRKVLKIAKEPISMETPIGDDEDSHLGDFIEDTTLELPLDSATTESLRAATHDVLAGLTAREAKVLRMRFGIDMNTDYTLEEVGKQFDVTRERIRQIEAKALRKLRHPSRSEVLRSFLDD
T1 sequence (P0A8T7 whole entry): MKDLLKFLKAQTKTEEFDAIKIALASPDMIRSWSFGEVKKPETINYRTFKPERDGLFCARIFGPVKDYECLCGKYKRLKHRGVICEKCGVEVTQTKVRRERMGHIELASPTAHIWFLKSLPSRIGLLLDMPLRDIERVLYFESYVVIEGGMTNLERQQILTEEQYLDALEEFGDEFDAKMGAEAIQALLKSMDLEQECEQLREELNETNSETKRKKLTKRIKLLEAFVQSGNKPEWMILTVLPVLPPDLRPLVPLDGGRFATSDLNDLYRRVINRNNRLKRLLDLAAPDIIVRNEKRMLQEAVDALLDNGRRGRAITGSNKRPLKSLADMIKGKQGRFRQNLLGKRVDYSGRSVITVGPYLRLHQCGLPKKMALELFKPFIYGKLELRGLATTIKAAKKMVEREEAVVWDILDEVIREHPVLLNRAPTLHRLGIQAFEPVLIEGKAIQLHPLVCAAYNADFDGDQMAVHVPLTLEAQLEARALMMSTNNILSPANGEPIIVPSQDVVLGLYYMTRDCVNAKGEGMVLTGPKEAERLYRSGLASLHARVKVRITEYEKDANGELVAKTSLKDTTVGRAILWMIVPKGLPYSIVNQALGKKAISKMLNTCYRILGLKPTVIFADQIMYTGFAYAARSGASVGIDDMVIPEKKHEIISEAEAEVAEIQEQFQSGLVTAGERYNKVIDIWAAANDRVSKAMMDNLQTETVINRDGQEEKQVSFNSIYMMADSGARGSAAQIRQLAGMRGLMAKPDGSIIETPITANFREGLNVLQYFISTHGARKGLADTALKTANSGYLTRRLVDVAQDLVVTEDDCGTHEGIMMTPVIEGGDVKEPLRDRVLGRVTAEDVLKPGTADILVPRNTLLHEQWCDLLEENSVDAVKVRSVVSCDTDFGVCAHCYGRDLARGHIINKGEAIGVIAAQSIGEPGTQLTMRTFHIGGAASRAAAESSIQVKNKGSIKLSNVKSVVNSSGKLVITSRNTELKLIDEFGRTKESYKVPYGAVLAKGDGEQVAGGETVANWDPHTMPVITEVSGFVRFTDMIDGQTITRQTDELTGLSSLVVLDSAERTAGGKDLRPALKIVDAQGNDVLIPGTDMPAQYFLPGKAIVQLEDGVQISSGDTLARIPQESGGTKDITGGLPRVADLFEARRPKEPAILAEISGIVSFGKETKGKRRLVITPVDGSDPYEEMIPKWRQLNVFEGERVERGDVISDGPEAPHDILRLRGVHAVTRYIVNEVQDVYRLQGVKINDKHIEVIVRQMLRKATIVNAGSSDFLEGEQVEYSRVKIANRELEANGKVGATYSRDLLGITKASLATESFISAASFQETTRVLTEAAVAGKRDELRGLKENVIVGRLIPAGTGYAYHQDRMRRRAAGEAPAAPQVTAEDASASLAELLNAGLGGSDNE
T1 sequence (P0A800 whole entry, further chain): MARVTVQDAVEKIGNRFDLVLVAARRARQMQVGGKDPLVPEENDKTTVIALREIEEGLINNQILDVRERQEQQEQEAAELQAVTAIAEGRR

In the case of CC[C@H](C)[C@H](NC(=O)CNC(=O)[C@@H](NC(=O)[C@H](Cc1ccccc1)NC(=O)[C@H](Cc1ccc(O)cc1)NC(=O)[C@@H]1CCC(=O)NCC(=O)NCC(=O)N[C@@H](C)C(=O)NCC(=O)N[C@@H](Cc2c[nH]cn2)C(=O)N[C@@H](C(C)C)C(=O)N2CCC[C@H]2C(=O)N1)C(C)C)C(=O)NCC(=O)N[C@H](C(=O)N1CCC[C@H]1C(=O)N[C@H](C(=O)N[C@@H](CO)C(=O)N[C@@H](Cc1ccccc1)C(=O)N[C@@H](Cc1ccc(O)cc1)C(=O)NCC(=O)O)[C@@H](C)CC)[C@@H](C)O [microcin J25] (GGAGHVPEYFVGIGTPISFYG-OH; lactam N-8; C-terminus assumed), the “knockdown of GFP expression / native RNA polymerase” value [1] is given as “knocks down GFP expression”, the “knockdown of GFP expression / native RNA polymerase” value ([1]; listed as microcinJ25) is given as “functional knockdown” and the “decrease in Salmonella infection” value [2] is given as 3 fold. For the same compound, the MIC [3] was 0.02 µg/mL (≈ 9.49 nM) and the MIC [4] was 0.1 µM (≈ 0.211 µg/mL).

In the case of “mcjA: peptide precursor (propeptide) of microcin J25 (MIKHFHFNKLSSGKKNNVPSPAKGVIQIKKSASQLTKGGAGHVPEYFVGIGTPISFYG; full-length; UniProt Q9X2V7 1-58, looked up)”, the “stability when expressed in E. coli cell-free systems” value [5] is reported as “known to degrade”.

In the case of caulosegnin, the “knockdown of GFP expression / native RNA polymerase” value [1] is given as “no effect on GFP expression” and the “RNA polymerase inhibitory activity” value [6] is given as “not to have RNA polymerase inhibitory activity”.

For klebsidin, the “knockdown of GFP expression / native RNA polymerase” value [1] was “functional knockdown”.

For CC[C@H](C)[C@H](NC(=O)CNC(=O)[C@@H](NC(=O)[C@H](Cc1ccccc1)NC(=O)[C@H](Cc1ccc(O)cc1)NC(=O)[C@@H]1CCC(=O)NCC(=O)NCC(=O)N[C@@H](C)C(=O)NCC(=O)N[C@@H](Cc2cnc[nH]2)C(=O)N[C@@H](C(C)C)C(=O)N2CCC[C@H]2C(=O)N1)C(C)C)C(=O)NCC(=O)N[C@H](C(=O)N1CCC[C@H]1C(=O)N[C@H](C(=O)N[C@@H](CO)C(=O)N[C@@H](Cc1ccccc1)C(=O)N[C@@H](Cc1ccc(O)cc1)C(=O)NCC(=O)O)[C@@H](C)CC)[C@@H](C)O [microcin J25] (GGAGHVPEYFVGIGTPISFYG-OH; lactam N-8), the heat stability [7] is listed as “heat-stable”.
